From patent US20090259054A1, “Methods and Compositions for the Treatment of Angiogenesis and Macular Degeneration” (The Texas A&M University System, priority 2008, published 2009)
Values joined by “and” are separate entries in the source; they are usually repeats but may differ in a detail not shown here. Identical values can stand only once. “Also recorded” adds a separate entry of the source.

Experiments:
mice aortic rings = assay: Aortic ring assay (micro-vessel growth); type: cell-based; conditions: 10 nM GA, 4 days incubation
Protocol: Forty-eight-well plates were covered with 100 μl of Matrigel at 4° C. and incubated at 37° C., 5% CO2 for 30 minutes. Aortas isolated from mice were cleaned of periadventitial fat and connective tissues, and cut into about 1-1.5 mm-long rings. After being rinsed five times with endothelial cell-based medium, the aortas were placed on the Matrigel covered wells and covered with another 100 μl of Matrigel. Artery rings were cultured in 1.5 ml of ECGM medium without serum for 24 hours. The medium was then replaced with 1.5 ml of ECGM medium supplemented with or without GA. The medium was changed every two days with the exact composition as described above. After 4 days incubation, the micro-vessel growth was quantified in the mouse aortic ring assay by taking photographs with an Olympus IX 70 inverted microscope using a 4× objective lens. After images were acquired, the outgrowth area was delineated and measured with Pro Plus software (Media Cybernetics).

PC3 cells = assay: Proliferation assay (CellTiter 96 Aqueous One); type: cell-based; conditions: Homo sapiens, PC-3; PC3 cancer cells; read-out: Concentration required to inhibit PC3 cell proliferation by 50%
Source text: (§1) HUVEC and PC3 cell proliferation assays with different concentrations of GA were followed according to the CellTiter 96 Aqueous One Solution Cell Proliferation Assay (Promega) and analyzed using a VERSAMAX microplate reader (Molecular Devices).

HUVEC cells [1] = assay: Proliferation assay (CellTiter 96 Aqueous One); type: cell-based; conditions: Homo sapiens, read-out: Concentration that inhibits HUVEC cell proliferation by 50%
Source text: as §1

mouse cornea = assay: VEGF induced corneal angiogenesis, mouse corneal model; type: in vivo; conditions: 2.5 μg/ml GA, 160 ng/ml VEGF
[2] = test system: PC3 human prostate tumor cells in SCID male mice; type: in vivo
Protocol: The 5-6 week old severe combined immune deficiency (SCID) male mice (ordered from NIH, each weighing about 20 g) were divided into groups of five mice per group. Log-phase PC3 human prostate tumor cells were subcutaneously injected (2×10^6 cell per mouse) into the mice. After the tumors had become established (about 50 mm^3), the mice were subcutaneously injected with or without 3 mg/kg GA every day. The mice body weights and tumor sizes were recorded every day and the tumor sizes were determined by Vernier caliper measurements and calculated as length×width×height. After 15 days, mice with subcutaneous (hereinafter, s.c.) tumors no greater than 1.5 cm in diameter were sacrificed in accordance with University of California Los Angeles Animal Rights Committee Guidelines. The tumors were removed and fixed with Histochoice® MB (Molecular Biology) tissue fixative (Amresco®) and embedded with paraffin. The 5 μm sections were performed specific blood vessel staining with CHEMICON's Blood Vessel Staining Kit (von Willebrand Factor, Chemicon International, blood vessel staining kit, peroxidase system). Images were taken with a ZEISS Axioskop 40 photomicroscope. The number of blood vessels in the high power fields (HPF, 200×) was counted (plug number=4-5, t-test, p<0.005).

HUVEC cells [3] = assay: Western blotting for cleaved caspase 3 and cleaved PARP (apoptosis); type: cell-based, human; conditions: 100 nM GA
Protocol: HUVEC cells pretreated with or without 4 nM VEGF for 5 min were treated with or without different concentrations of GA for another 5 minutes. 200 μg total protein of the cells of each sample was subjected to immunoprecipitation using anti-c-Src, anti-FAK and anti-AKT antibodies (Santa Cruz Biotech) and further subjected to Western blotting. The pTyr-antibody (Santa Cruz Biotech) was used for detecting c-Src phosphorylation and the pFAK397 antibody (Cell Signaling) was blotted for c-Src-associated FAK phosphorylation at […]. In addition, AKT phosphorylation was examined using a pSer473-AKT antibody (Cell Signaling). Anti-cleaved caspase 3 antibody (Santa Cruz Biotech) was used for detecting cleaved caspase 3 and polyADP ribose polymerase (PARP) cleavage was detected by an anti-PARP p85 fragment (Promega) in apoptosis assays.
Several previous studies described gambogic acid (FIG. 1A) activated apoptosis in cancer cells, which partly answered the molecular mechanism of GA's anticancer characters. […] Whole cell proteins of GA treated HUVECs were analyzed by Western blotting with anticleaved caspase 3 and PARP antibodies. […] To investigate if the apoptotic activation effect of GA is different between endothelial cells and cancer cells, we measured the apoptotic populations of HUVECs and human prostate cancer cell PC3 cells treated with GA by flow cytometry FACS assays. […]

In the case of CC(C)=CCC[C@]1(C)C=Cc2c(O)c3c(c(CC=C(C)C)c2O1)O[C@]12C(=C[C@@H]4C[C@H]1C(C)(C)O[C@@]2(C/C=C(/C)C(=O)O)C4=O)C3=O [GA, gambogic acid], the “New vessel growth from aortic rings” value (mice aortic rings) is reported as “inhibited almost all new vessel growth”, the IC50 (PC3 cells) is reported as > 400 nM and the IC50 (HUVEC cells [1]) is reported as 80 nM. For the same molecule, the “VEGF induced corneal angiogenesis” value (mouse cornea) was “significantly inhibits corneal angiogenesis; also recorded: dramatically inhibits”, the “Tumor size after 15 days” value ([2]; 3 mg/kg GA every day s.c., 15 days) was 169.1±25.6 mm^3 and 127.4±25.6 mm^3 and the “Average vessel number in tumors” value ([2]; 3 mg/kg GA every day, 15 days, HPF 200×) was 1.8±1.3 per HPF. The “Tumor size at start of treatment” value ([2]; GA treated group, before 3 mg/kg GA every day) was 51.74±3.8 mm^3, the “Average body weight at start” value ([2]; mouse, in vivo) was 22.4 ± 1 g and the “Apoptosis by cleaved caspase 3 and cleaved PARP” value (HUVEC cells [3]) was “induces apoptosis; also recorded: strongly induced apoptosis”.
